According to ChEMBL document CHEMBL1201862, “PubChem BioAssay data set” (2004):
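Dose response: 5 concentrations. Exposure: 48 h. Format: 96-well plates. Endpoint: linear interpolation; highest concentration if not reached. At the GI50, growth is halved.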 Calls of active or inactive are those of the source. Rule as the data show it: active = GI50 up to about 1.1 µM and inactive = higher.

Legend:
Assay in all cases: NCI tumour cell line growth inhibition, 48 h
HCC 2998 = system: HCC 2998
TK-10 = system: TK-10
SK-OV-3 = system: SK-OV-3
SF-268 = system: SF-268
NCI-H226 = system: NCI-H226
Malme-3M = system: Malme-3M
A549 = system: A549
RXF 393 = system: RXF 393
Hs-578T = system: Hs-578T
MOLT-4 = system: MOLT-4
NCI-H460 = system: NCI-H460
HCT-116 = system: HCT-116
SF-295 = system: SF-295
DU-145 = system: DU-145
SK-MEL-2 = system: SK-MEL-2
SN12C = system: SN12C
MDA-N = system: MDA-N
K562 = system: K562

Measured: GI50

O=C(NCc1ccccc1)c1cnc(Cl)cn1
inactive: HCC 2998 17.3 µM | TK-10 > 100 µM | SK-OV-3 > 100 µM | SF-268 > 100 µM | NCI-H226 > 100 µM | Malme-3M 34.3 µM | A549 > 100 µM | RXF 393 > 100 µM | Hs-578T 43.2 µM | MOLT-4 27.1 µM | NCI-H460 > 100 µM | HCT-116 79.8 µM | SF-295 > 100 µM | DU-145 > 100 µM | SK-MEL-2 48.1 µM | SN12C > 100 µM

Cc1ccc(SCC(OCn2cnc3c(N)ncnc32)[C@H](C)F)cc1 (stereo partly drawn)
inactive: HCC 2998 > 100 µM | TK-10 > 100 µM | SK-OV-3 > 100 µM | SF-268 > 100 µM | NCI-H226 > 100 µM | Malme-3M > 100 µM | A549 > 100 µM | Hs-578T > 100 µM | MOLT-4 > 100 µM | NCI-H460 > 100 µM | HCT-116 > 100 µM | SF-295 > 100 µM | DU-145 > 100 µM | SK-MEL-2 > 100 µM | SN12C > 100 µM

CCS(=O)(=O)c1c2cc(OC)ccc2nc2ccc(OC)cc12
inactive: HCC 2998 > 100 µM | TK-10 > 100 µM | SK-OV-3 > 100 µM | SF-268 > 100 µM | NCI-H226 > 100 µM | Malme-3M > 100 µM | A549 > 100 µM | RXF 393 > 100 µM | MOLT-4 > 100 µM | NCI-H460 > 100 µM | HCT-116 > 100 µM | MDA-N > 100 µM | SF-295 > 100 µM | DU-145 > 100 µM | K562 > 100 µM | SK-MEL-2 > 100 µM | SN12C > 100 µM

COC(=O)C1(C(=O)OC)CC2=C(S(=O)(=O)c3ccccc3)C[C@H](C#N)[C@H]2C1
inactive: TK-10 > 100 µM | SK-OV-3 > 100 µM | SF-268 > 100 µM | NCI-H226 > 100 µM | Malme-3M > 100 µM | A549 > 100 µM | RXF 393 > 100 µM | Hs-578T > 100 µM | MOLT-4 > 100 µM | HCT-116 > 100 µM | MDA-N 79.4 µM | SF-295 > 100 µM | DU-145 > 100 µM | SK-MEL-2 > 100 µM | SN12C > 100 µM

C/C(=C\COP(=O)(O)OP(=O)(O)O)CC/C=C(\C)CNc1c(F)c(F)c(F)c(F)c1F
inactive: HCC 2998 > 100 µM | TK-10 > 51.1 µM | SK-OV-3 > 100 µM | SF-268 > 100 µM | NCI-H226 20.3 µM | A549 > 48.6 µM | RXF 393 > 22.9 µM | Hs-578T 31 µM | MOLT-4 > 100 µM | NCI-H460 > 100 µM | HCT-116 > 25.5 µM | SF-295 > 52.8 µM | DU-145 > 67.6 µM | K562 > 100 µM | SK-MEL-2 > 100 µM | SN12C > 56.1 µM

Cc1n[n+]([O-])c(C)cc1[N+](=O)[O-]
inactive: HCC 2998 12.5 µM | TK-10 8.67 µM | SK-OV-3 93.8 µM | SF-268 46 µM | NCI-H226 26.9 µM | Malme-3M 20.9 µM | A549 22 µM | RXF 393 25.2 µM | Hs-578T 28.6 µM | NCI-H460 14 µM | HCT-116 16.1 µM | DU-145 21.7 µM | SK-MEL-2 20.1 µM | SN12C 14.9 µM

OCC1(CNc2cc(Cl)ncn2)CCC1
inactive: TK-10 > 100 µM | SF-268 > 100 µM | NCI-H226 > 100 µM | Malme-3M > 100 µM | A549 > 100 µM | Hs-578T > 100 µM | MOLT-4 > 100 µM | NCI-H460 > 100 µM | HCT-116 > 100 µM | MDA-N > 100 µM | SF-295 > 100 µM | DU-145 > 100 µM | K562 > 100 µM | SK-MEL-2 > 100 µM | SN12C > 100 µM

CCOC(=O)c1ccc(-c2cc(C)[nH]n2)[nH]1
inactive: TK-10 > 100 µM | SK-OV-3 > 100 µM | SF-268 > 100 µM | NCI-H226 > 100 µM | Malme-3M > 100 µM | A549 > 100 µM | RXF 393 > 100 µM | NCI-H460 > 100 µM | HCT-116 > 100 µM | MDA-N > 100 µM | SF-295 > 100 µM | DU-145 > 100 µM | SK-MEL-2 > 100 µM | SN12C > 100 µM

O=C1CC(NCc2ccccc2)c2c(Cl)sc(Cl)c21 (stereo not drawn)
inactive: HCC 2998 17.4 µM | TK-10 31.3 µM | SK-OV-3 > 74 µM | SF-268 16.3 µM | NCI-H226 25.9 µM | Malme-3M 18.5 µM | A549 33.3 µM | Hs-578T 41.8 µM | MOLT-4 4.23 µM | NCI-H460 > 61.4 µM | HCT-116 15.1 µM | SF-295 38.7 µM | DU-145 35.8 µM | K562 16.6 µM | SK-MEL-2 19.5 µM | SN12C 26 µM
